Laboratory results: ChEMBL document CHEMBL3785025, “Focus on PAINS: false friends in the quest for selective anti-protozoal lead structures from Nature?” (Medchemcomm, 2016)
In brackets after ≈: the same amount, converted by molar mass.

Legend:
[1] = test system: Trypanosoma brucei rhodesiense; experiment: Antitrypanosomal activity against Trypanosoma brucei rhodesiense STIB 900 after 72 hrs by alamar blue staining based fluorescence analysis; assay type: functional, organism-based; conditions: STIB 900, 72 h
Trypanosoma cruzi [2] = experiment: Antitrypanosomal activity against trypomastigote forms of Trypanosoma cruzi Tulahuen C2C4 infected in rat L6 cells after 96 hrs by photometric method; assay type: functional, organism-based; conditions: Tulahuen C2C4, L6, 96 h
L6 = experiment: Cytotoxicity against rat L6 cells after 72 hrs by alamar blue staining based fluorescence analysis; assay type: functional, cell-based; conditions: L6, 72 h
Leishmania donovani [3] = experiment: Antileishmanial activity against Leishmania donovani MHOM/ET/67/L82 after 72 hrs by Alamar blue dye based fluorescence analysis; assay type: functional, organism-based; conditions: MHOM/ET/67/L82, 72 h
Leishmania amazonensis [4] = experiment: Antileishmanial activity against amastigote Leishmania amazonensis; assay type: functional, organism-based
Leishmania amazonensis [5] = experiment: Antileishmanial activity against amastigote Leishmania amazonensis relative to control; assay type: functional
Arginase-1 = biological target: T1, Arginase-1 (Rattus norvegicus, UniProt P07824); experiment: Inhibition of recombinant rat liver arginase expressed without histidine tail assessed as urea formation using L-arginine as substrate after 15 mins by Berthelot assay
T1 sequence (P07824 whole entry): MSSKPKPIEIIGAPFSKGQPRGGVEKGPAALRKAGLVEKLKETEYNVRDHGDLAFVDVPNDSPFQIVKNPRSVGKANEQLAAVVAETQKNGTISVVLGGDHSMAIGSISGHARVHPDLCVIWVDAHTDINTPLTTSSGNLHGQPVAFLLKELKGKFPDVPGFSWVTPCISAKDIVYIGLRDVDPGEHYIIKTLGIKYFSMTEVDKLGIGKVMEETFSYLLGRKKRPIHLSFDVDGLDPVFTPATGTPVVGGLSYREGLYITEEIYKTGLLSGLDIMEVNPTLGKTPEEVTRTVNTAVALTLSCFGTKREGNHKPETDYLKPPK

[6] = test system: Trypanosoma brucei brucei; experiment: Antitrypanosomal activity against Trypanosoma brucei brucei; assay type: functional, organism-based
Plasmodium falciparum [7] = experiment: Antiplasmodial activity against chloroquine-resistant Plasmodium falciparum FcB1/Colombia after 24 hrs by [3H]hypoxanthine incorporation assay; assay type: functional, organism-based
Leishmania donovani [8] = experiment: Antileishmanial activity against Leishmania donovani MHOM/ET/67/HU3 after 5 days by Giemsa staining based microscopic analysis; assay type: functional, organism-based; conditions: MHOM/ET/67/HU3, 120 h
Plasmodium falciparum [9] = experiment: Antimalarial activity against chloroquine-sensitive Plasmodium falciparum 3D7 after 48 hrs by ethidium bromide staining based fluorometric method; assay type: functional, organism-based; conditions: 3D7, 48 h
[10] = Cytotoxicity against human U937 cells after 72 hrs by MTT assay; assay type: functional; conditions: U-937, 72 h, read-out: LD50 (the source's name)
Leishmania donovani [11] = experiment: Antileishmanial activity against Leishmania donovani MHOM/ET/67/L82 after 72 hrs by resazurin dye based fluorescence analysis; assay type: functional, organism-based; conditions: MHOM/ET/67/L82, 72 h
Plasmodium falciparum [12] = experiment: Antimalarial activity against chloroquine and pyrimethamine-resistant Plasmodium falciparum K1 infected in human red blood cells after 48 hrs by [3H]hypoxanthine incorporation assay; assay type: functional, organism-based
Trypanosoma cruzi [13] = experiment: Antitrypanosomal activity against trypomastigote forms of Trypanosoma cruzi Tulahuen C2C4 infected in rat L6 cells assessed as inhibition of growth after 96 hrs by inverted microscopy; assay type: functional, organism-based; conditions: Tulahuen C2C4, L6, 96 h
Leishmania donovani [14] = experiment: Antileishmanial activity against […] Leishmania donovani MHOM/KE/85/NLB439 in human peripheral blood monocyte derived macrophages assessed as growth inhibition after 24 hrs by [3H]-thymidine incorporation assay; assay type: functional, organism-based
Leishmania major [15] = experiment: Antileishmanial activity against promastigote Leishmania major MHOM/IL/67/LRC-L137 assessed as growth inhibition after 2 hrs by [3H]-thymidine incorporation assay; assay type: functional, organism-based
[16] = Cmax in Wistar rat at 50 mg/kg administered as lipid nanoparticle suspension after 2 hrs by UPLC method; assay type: ADME, organism-based; design: dose 50 mg/kg; conditions: in vivo
[17] = Cmax in Wistar rat at 50 mg/kg after 2 hrs by UPLC method; assay type: ADME, organism-based; design: dose 50 mg/kg; conditions: in vivo
Leishmania infantum = experiment: Antileishmanial activity against Leishmania infantum MCAN/IR/07/Moheb-gh assessed as cell viability after 72 hrs by MTT assay; assay type: functional, organism-based
Leishmania tropica = experiment: Antileishmanial activity against Leishmania tropica MHOM/IR/2002/Mash2 assessed as cell viability after 72 hrs by MTT assay; assay type: functional, organism-based; conditions: MHOM/IR/2002/Mash2, 72 h
Plasmodium falciparum [18] = experiment: Antimalarial activity against chloroquine-sensitive Plasmodium falciparum 3D7 after 24 hrs by [3H]hypoxanthine labeling method; assay type: functional, organism-based
Trypanosoma brucei = experiment: Antitrypanosomal activity against Trypanosoma brucei; assay type: functional, organism-based
[19] = Cytotoxicity against mouse J774.1 cells; assay type: cell-based
Leishmania major [20] = experiment: Antileishmanial activity against Leishmania major promastigotes; assay type: functional; conditions: read-out: LD50 (the source's name)
Plasma = experiment: Plasma concentration in human at […], administered orally by HPLC method in presence of 20 mg piperine; assay type: ADME, cell-free; conditions: po
[21] = Cytotoxicity against HEK293T cells; assay type: cell-based; conditions: Homo sapiens, HEK-293T

In the case of `C[C@@H]1O[C@@H](Oc2c(-c3ccc(O)c(O)c3)oc3cc(O)cc(O)c3c2=O)[C@H](O)[C@H](O)[C@H]1O` [QUERCITRIN], the IC50 [1] is reported as 27.9 µg/mL, the IC50 (Trypanosoma cruzi [2]) is reported as over 30 µg/mL and the IC50 (L6) is reported as over 90 µg/mL. For the same compound, the IC50 (Leishmania donovani [3]) was 17.7 µg/mL (≈ 39.5 µM).
With `O=c1c(O[C@@H]2O[C@H](CO)[C@@H](O)[C@H](O)[C@H]2O)c(-c2ccc(O)c(O)c2)oc2cc(O)cc(O)c12` [ISOQUERCETIN] the IC50 (Leishmania amazonensis [4]) was 0.78 µg/mL (≈ 1.68 µM) and the Activity (Leishmania amazonensis [5]) was 40%.
`O=c1c(O)c(-c2ccc(O)c(O)c2)oc2cc(O)ccc12` [FISETIN] gave an IC50 [1] of 3.3 µg/mL, an IC50 (Arginase-1) of 1.4 µM and an IC50 (Trypanosoma cruzi [2]) of over 30 µg/mL. It also gave an IC50 (L6) of 38.5 µg/mL and an IC50 (Leishmania donovani [3]) of 0.6 µg/mL (≈ 2.1 µM).
Work on `O=c1cc(-c2ccc(O)cc2)oc2cc(O)cc(O)c12` [APIGENIN] yielded an IC50 [1] of 5.1 µg/mL, an IC50 (Trypanosoma cruzi [2]) of 21.8 µg/mL (≈ 80.7 µM) and an IC50 (L6) of 18.1 µg/mL. The IC50 (Leishmania donovani [3]) was 1.9 µg/mL (≈ 7.03 µM).
`O=CO[C@@H](CCc1ccc(O)c(O)c1)C[C@H](CCc1ccc(O)c(O)c1)O[C@@H]1O[C@H](CO)[C@@H](O)[C@H](O)[C@H]1O` showed an IC50 [6] of 25 µM, an IC50 (Plasmodium falciparum [7]) of over 20 µM and an IC50 (Leishmania donovani [8]) of 30 µM.
With `O=c1cc(-c2ccc(O)c(O)c2)oc2cc(O)cc(O)c12` [LUTEOLIN] the IC50 [1] was 3.7 µg/mL, the IC50 (Arginase-1) was 9 µM and the IC50 (Trypanosoma cruzi [2]) was 21.4 µg/mL (≈ 74.8 µM). It also gave an IC50 (L6) of 9.4 µg/mL and an IC50 (Leishmania donovani [3]) of 0.8 µg/mL (≈ 2.79 µM).
In the case of `COc1ccc(CC[C@H](O)C[C@H](CCc2ccc(O)c(O)c2)O[C@@H]2O[C@H](CO)[C@@H](O)[C@H](O)[C@H]2O)cc1`, the IC50 [6] is reported as over 100 µM, the IC50 (Plasmodium falciparum [7]) is reported as over 20 µM and the IC50 (Leishmania donovani [8]) is reported as 30 µM.
`CC(C)=CCc1c(O)c(O)c(O)c2c(=O)c3c(CC=C(C)C)c(O)c(O)cc3oc12` gave an IC50 (Plasmodium falciparum [9]) of 12.4 µM and a CC50 [10] of 263 µM.
In the case of `C/C=C(\C)CO[C@@H]1CC([C@@H](O)[C@]2(C)C=C3OC(=O)C4=C3[C@H]2[C@H]2OC(=O)[C@H](C)[C@@H]2[C@H](OC/C(C)=C/C)C4)=C2C(=O)C=C(C)[C@@H]2[C@H]2OC(=O)[C@H](C)[C@@H]21`, the IC50 (Leishmania donovani [11]) is reported as 10.2 µM, the IC50 [1] is reported as 6.2 µM and the IC50 (Plasmodium falciparum [12]) is reported as 2 µM. For the same compound, the IC50 (Trypanosoma cruzi [13]) was 30.3 µM and the IC50 (L6) was 16.2 µM.
In the case of `C=CC(C)(C)c1cc(/C=C/C(=O)c2ccc(O)cc2)c(OC)cc1O` [LICOAGROCHACONE A], the IC50 (Leishmania donovani [14]) is reported as 0.9 µM and the IC50 (Leishmania major [15]) is reported as 7.2 µM.
`CC1=CC(=O)C(C(C)C)=CC1=O` [THYMOQUINONE] gave a Cmax [16] of 900 ng/mL, a Cmax [17] of 400 ng/mL and an IC50 (Leishmania infantum) of 1.47 µg/mL (≈ 8.95 µM). It also gave an IC50 (Leishmania tropica) of 1.16 µg/mL (≈ 7.06 µM).
In the case of `O=c1c(O)c(-c2ccc(O)c(O)c2)oc2cc(O)cc(O)c12` [QUERCETIN], the IC50 [1] is reported as 8.3 µg/mL, the IC50 (Trypanosoma cruzi [2]) is reported as over 30 µg/mL and the IC50 (Leishmania donovani [3]) is reported as 1 µg/mL (≈ 3.31 µM).
Compound `COc1ccc(CC[C@@H](C[C@H](CCc2ccc(O)c(O)c2)O[C@@H]2O[C@H](CO)[C@@H](O)[C@H](O)[C@H]2O)OC=O)cc1` has an IC50 [6] of 25 µM, an IC50 (Plasmodium falciparum [7]) of over 20 µM and an IC50 (Leishmania donovani [8]) of 30 µM.
For `OC[C@H]1O[C@@H](O[C@@H](CCc2ccc(O)c(O)c2)C[C@@H](O)CCc2ccc(O)c(O)c2)[C@H](O)[C@@H](O)[C@@H]1O`, the IC50 [6] was 25 µM, the IC50 (Plasmodium falciparum [7]) was over 20 µM and the IC50 (Leishmania donovani [8]) was 30 µM.
Compound `COc1cc(/C=C/C(=O)CC(=O)/C=C/c2ccc(O)c(OC)c2)ccc1O` [CURCUMIN] has an IC50 (Plasmodium falciparum [18]) of 25 µM, an IC50 (Trypanosoma brucei) of 3.6 µM and an LC50 ([6]; read-out: LD50 (the source's name)) of 46.5 µM. It also gave an IC50 [19] of 31 µM, an LC50 (Leishmania major [20]) of 37.6 µM and a Cp (Plasma) of 180 ng/mL. It also gave an IC50 [21] of 15.2 µM.
